Results reported in patent US20220064604A1, “SYSTEMIC SCLEROSIS DISEASE MODEL AND USE THEREOF” (YiPSCELL Inc., priority 2018, published 2022).
Starred links: 1 amine or outer side, 2 acyl side, 3 side chain; linkers in the order of their positions; H or OH if unused. Positions of bridges follow the written chain, without caps; N, C: chain ends. Non-standard residues stand in square brackets, D forms with d. Residues, ends and D or L forms follow the SMILES beside them. Chains are numbered I, II in the order given. Actinocin(9to1) = Cc1c2oc3c(C)ccc(C(=O)[*:1])c3nc-2c(C(=O)[*:2])c(N)c1=O; NMeV = CN[C@H](C(=O)O)C(C)C; Sar = CNCC(=O)O

Tests used:
[1] = tested on: fibroblasts derived from the induced pluripotent stem cells; test: Cell proliferation of iPSC-derived fibroblasts, Cell Counting Kit-8 (FDA-approved drug screening); type: cell-based, human; conditions: absorbance at 450 nm
Experimental: For cell proliferation, absorbance was measured at 450 nm by using the Cell Counting Kit-8 (Dojindo).
The plated cells were treated with about 800 FDA-approved drugs to screen for drugs that reduce the proliferation (FIG. 6A). For cell proliferation, absorbance was measured at 450 nm by using the Cell Counting Kit-8 (Dojindo) (FIG. 6B).

ACTA2 and COL1A1 = test: Fibrosis marker gene expression (qRT-PCR) in SSc iPSC-derived fibroblasts; type: cell-based, human; conditions: 5 μM; SSc patient iPSC-derived fibroblasts; vs untreated
Experimental: In order to verify the fibrosis model of the fibroblasts derived from the induced pluripotent stem cells of patients with systemic sclerosis formed in Example 3 above, 2.5×10^5 fibroblasts were plated on a 6-well plate, and maintained and expanded for 1 day. One day later, pirfenidone and nintedanib were treated at a concentration of 5 μM. The total RNA was extracted using Trizol, and cDNA was synthesized using the Revert Aid™ First Strand cDNA Synthesis kit. The qRT-PCR was performed on the synthesized cDNA using LightCycle 480 SYBR Green. The primers used are presented in [Table 3]. All of the experiments were repeated 3 times, and the threshold of the average cycle was used to calculate gene expression for averaging GAPDH as an internal control.

total collagen in iPSC-F = test: Total collagen expression, hydroxyproline assay, in iPSC-derived fibroblasts; type: cell-based, human; conditions: for expression of the total collagen: 5 μM, SSc patient iPSC-derived fibroblasts, vs untreated
Experimental: (§1) The cells or cell culture media were harvested, mixed with hydrochloric acid at a ratio of 1:1, and cultured at 120° C. for 3 hours. After culture, 5 mg of activated charcoal was added, followed by centrifugation at 13,000×g for 5 minutes to separate only the supernatant. The harvested supernatant was transferred to a 96-well plate and dried completely at 60° C. The Chloramine T/Oxidation Buffer mixture was added to the well, and it was cultured for 5 minutes at room temperature. After adding the diluted DMAB Reagent and incubating at 60° C. for 90 minutes, absorbance at 560 nm was measured.
as §1, with “For collagen expression, the hydroxyproline assay kit (Sigma) was used. The cells” for “The cells”, “1:1, and incubated at 120°” for “1:1, and cultured at 120°”, “hours. After incubation, 5 mg” for “hours. After culture, 5 mg”, “it was incubated for 5” for “it was cultured for 5”
For collagen expression, the hydroxyproline assay kit (Sigma) was used. The cells or cell culture media were harvested, mixed with hydrochloric acid at a ratio of 1:1, and incubated at 120° C. for 3 hours. After incubation, 5 mg of activated charcoal was added, followed by centrifugation at 13,000×g for 5 minutes to separate only the supernatant. […] After adding the diluted DMAB Reagent and incubating at 60° C. for 90 minutes, absorbance at 560 nm was measured.
After 1 day, pirfenidone and nintedanib, which are drugs approved as anti-fibrotic drugs, were treated at a concentration of 5 μM. Collagen expression was measured using the hydroxyproline assay kit (Sigma). […] After adding the diluted DMAB Reagent and incubating at 60° C. for 90 minutes, absorbance was measured at 560 nm to measure the total amount of collagen.

[2] = tested on: COL1A1, COL3A1, and ACTA2; test: Fibrosis factor gene expression (qRT-PCR) in skin tissue of bleomycin model; type: in vivo, mouse; conditions: subcutaneous for 21 days
Experimental: (§2) A systemic sclerosis model was established by dissolving Bleocin (Dong-A ST, 15 mg) in PBS and injecting it daily into the nape of mice. Raloxifene and bazedoxifene were injected subcutaneously for 21 days from 3 days after the injection of Bleocin (FIG. 8A).
ECM gene expression was confirmed to verify the antifibrotic efficacy of raloxifene in the bleomycin model established in Example 8-1 above. After harvesting the skin tissue, the total RNA was extracted using Trizol, and cDNA was synthesized using the Revert Aid™ First Strand cDNA Synthesis kit. The qRT-PCR was performed on the synthesized cDNA using LightCycle 480 SYBR Green. The primers used are presented in [Table 4]. All of the experiments were repeated three times, and the threshold of the average cycle was used to calculate gene expression for averaging GAPDH as an internal control.

bleomycin mouse model [3] = test: Thickness of skin tissue in bleomycin model (histology); type: in vivo
Experimental: as §2
In order to verify the antifibrotic efficacy of raloxifene in the bleomycin model established in Example 8-1 above, the skin tissue was harvested and paraffin blocks were prepared. The harvested skin tissue was fixed in 4% formaldehyde. The tissue was maintained in the running water for a day to remove the remaining fixative. Dehydration was carried out sequentially while increasing the concentration of an ethanol solution. After dehydration, a transparent process was performed with xylene, followed by paraffin penetration. The next day, the tissue was fixed to a paraffin block, and a tissue section was obtained using a microtome. The slide was dried at 60° C. for 1 hour. After the slide was deparaffinized with xylene, it was rehydrated while decreasing the concentration of the ethanol solution and washed with tap water, and staining was performed.
For hematoxylin and eosin (H&E) staining, sections were incubated in the Harris hematoxylin solution for 10 minutes. The slide was washed, decolorized in an ethanol solution containing 1% HCl, and then neutralized in 0.2% ammonia water. […]

α-SMA = α-SMA expression by western blot in iPSC-derived fibroblasts; type: cell-based, human
Experimental: In order to verify the antifibrotic effect of dactinomycin and raloxifene, which are the drugs selected through the above experiment, 1×10^6 fibroblasts were plated on a 100 mm culture dish, treated with the target drugs, and maintained and expanded. The protein was extracted using the RIPA buffer (Sigma) to analyze the expression of fibrosis factors, and the protein concentration was quantified by the Bradford assay. The same concentration of the protein was loaded on 10% SDS-PAGE, and the protein was transferred to polyvinylidene difluoride membranes. […] After washing with PBS containing 0.1% Tween-20, the peroxidase-linked IgG secondary antibody was incubated, and protein expression was measured using the ECL kit.
In order to confirm the reduction effect of the expression of the fibrosis factors of raloxifene, which is the drug selected in Example 6, raloxifene was treated by concentration, and the expression of α-SMA was confirmed. […] The protein was extracted using the RIPA buffer (Sigma) to analyze the expression of fibrosis factors, and the protein concentration was quantified by the Bradford assay. […] After washing with PBS containing 0.1% Tween-20, the peroxidase-linked IgG secondary antibody was incubated, and protein expression was measured using the ECL kit.

iPSC-F = test: Wound healing assay in iPSC-F with TGF-b induced fibrosis; type: cell-based, human
Experimental: The fibroblasts were plated on a 6-well plate and maintained and expanded. When the cells filled the plate, the plate was scratched, and fibrosis was induced by TGF-b and it was treated with the drug raloxifene.

3D fibroblast layer = test: Thickness of 3D fibroblast layer with TGF-b induced fibrosis; type: cell-based, human
Text: A 3D fibroblast layer was produced using the fibroblasts formed in Example 3 above. 2×10^5 fibroblasts after 28 days of differentiation were harvested and mixed with collagen 1 and plated on a 6-well-sized Transwell plate. It was replaced once every 2 days with Fibroblast Differentiation Culture Medium 1 for 5 days (FIG. 5F).
In order to confirm the effect of reducing the skin thickness by raloxifene, which is the drug selected in Example 6 above, fibrosis was induced in the 3D fibroblast layer with TGF-b, and it was treated with the drug raloxifene.

bleomycin mouse model [4] = test: Pulmonary fibrosis in bleomycin model (Masson Trichrome staining); type: in vivo
Experimental: A systemic sclerosis model was established by dissolving Bleocin (Dong-A ST, 15 mg) in PBS and injecting it daily into the nape of mice. Raloxifene and bazedoxifene were injected subcutaneously for 21 days from 3 days after the injection of Bleocin (FIG. 8A). […] For Masson Trichrome staining, the slide was mordated overnight in the Bouin solution. After washing the slide, nuclei were stained for 10 minutes with Weigert Iron Hematoxylin. The cytoplasm was stained for 5 minutes with Biebrich scarlet-acid fuchsin. It was decolorized for 10 minutes with a solution in which phosphotungstic acid, phosphomolybdic acid, and DW were mixed at a ratio of 1:1:2. The collagenic fiber was stained by maintaining in a 2% aniline blue solution for 5 minutes. The slide was washed and subjected to a dehydration process while increasing the concentration of ethanol. The remaining ethanol was removed with xylene, and it was sealed using the VectaMount Permanent Mounting Medium.

[5] = raloxifene treated by concentration

Cc1c2oc3c(C)ccc(C(=O)N[C@@H]4C(=O)N[C@H](C(C)C)C(=O)N5CCC[C@H]5C(=O)N(C)CC(=O)N(C)[C@@H](C(C)C)C(=O)O[C@@H]4C)c3nc-2c(C(=O)N[C@@H]2C(=O)N[C@H](C(C)C)C(=O)N3CCC[C@H]3C(=O)N(C)CC(=O)N(C)[C@@H](C(C)C)C(=O)O[C@@H]2C)c(N)c1=O [dactinomycin] (I: T[dV]P[Sar][NMeV] / II: T[dV]P[Sar][NMeV]; ester I:1-I:C, II:1-II:C; linker I:N-II:N via Actinocin(9to1))
cell proliferation [1]: decreased

COC(=O)c1ccc2c(c1)NC(=O)/C2=C(\Nc1ccc(N(C)C(=O)CN2CCN(C)CC2)cc1)c1ccccc1 [nintedanib]
gene expression of ACTA2 (ACTA2 and COL1A1): significantly reduced
gene expression of COL1A1 (ACTA2 and COL1A1): significantly reduced
expression of the total collagen (total collagen in iPSC-F): significantly reduced

Cc1ccc(=O)n(-c2ccccc2)c1 [pirfenidone]
gene expression of ACTA2 (ACTA2 and COL1A1): significantly reduced
gene expression of COL1A1 (ACTA2 and COL1A1): significantly reduced
expression of the total collagen (total collagen in iPSC-F): significantly reduced

O=C(c1ccc(OCCN2CCCCC2)cc1)c1c(-c2ccc(O)cc2)sc2cc(O)ccc12 [raloxifene]
expression of ACTA2 [2]: reduced
expression of COL1A1 [2]: reduced
expression of COL3A1 [2]: reduced
thickness of the skin tissue (bleomycin mouse model [3]): reduced
expression of α-SMA (α-SMA; iPSC-F of patients with systemic sclerosis): effectively decreased the expression of α-SMA compared to dactinomycin
expression of α-SMA, treated by concentration (α-SMA; [5]): reduced as the treatment concentration of raloxifene was increased
wound healing, which was increased by TGF-b (iPSC-F; wound healing assay in iPSC-F): reduced
proliferation of the cells, which was increased by TGF-b (iPSC-F; wound healing experiment, TGF-b induced): reduced
cell proliferation [1]: decreased
thickness of the 3D fibroblast layer, which was increased by TGF-b (3D fibroblast layer): reduced
lung fibrosis (bleomycin mouse model [4]): reduced
expression of the total collagen, treated by concentration (total collagen in iPSC-F; [5]): reduced as the treatment concentration of raloxifene was increased
